Data from article PMC9728238, “Heterologous Expression of Recombinant Transglutaminase in Bacillus subtilis SCK6 with Optimized Signal Peptide and Codon, and Its Impact on Gelatin Properties” (Journal of Microbiology and Biotechnology, 2020).
Where a SMILES comes first, the peptide text is derived from it. The star is where a group is joined. Cbz = O=C(OCc1ccccc1)*

Target: T1, MTG (recombinant microbial transglutaminase, TGase) (Streptomyces sp., UniProt A0A6H0XHW2)
T1 construct: pro-mature gene (1,149 bp) without native signal peptide, codon-optimized, behind B. subtilis YncM signal peptide; secreted by Bacillus subtilis SCK6; purified mature enzyme, 38 kDa; no tag told
T1 sequence (A0A6H0XHW2 80-410): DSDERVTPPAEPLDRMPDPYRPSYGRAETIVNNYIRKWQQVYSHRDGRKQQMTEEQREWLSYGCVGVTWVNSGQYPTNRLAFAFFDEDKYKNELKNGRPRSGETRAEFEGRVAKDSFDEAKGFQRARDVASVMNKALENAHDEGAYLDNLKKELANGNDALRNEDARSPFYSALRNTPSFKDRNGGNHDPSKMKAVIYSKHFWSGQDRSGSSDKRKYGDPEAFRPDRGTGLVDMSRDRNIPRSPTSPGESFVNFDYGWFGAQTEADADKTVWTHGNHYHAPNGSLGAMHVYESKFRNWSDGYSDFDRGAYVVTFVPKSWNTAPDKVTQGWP
Assay: hydroxamate assay ([…] nm), Lineweaver-Burk plot
Format: biochemical
Details: CBZ-Gln-Gly 5 to 30 mmol/l; pH 6.0; 37 °C; co-substrate hydroxylamine 100 mM, glutathione 10 mM; unit as printed (presumably μmol/ml)

With NC(=O)CC[C@H](NC(=O)OCc1ccccc1)C(=O)NCC(=O)O [CBZ-Gln-Gly] (Cbz-Gln-Gly-OH) the Km was 16.93 μM/ml.
